Data as given in article PMC3581469, “Bombesin Analogue-Mediated Delivery Preferentially Enhances the Cytotoxicity of a Mitochondria-Disrupting Peptide in Tumor Cells” (PLoS ONE, 2013).
Where no end group is shown, it is not given here.

Experiments:
DU145 and PC-3 cells = test: Cytotoxicity assay (CCK-8 cell viability); format: cell-based, human; details: 1 h; for cytotoxicity (in words): increasing concentrations, CCK-8
Method: (§1) Cells were seeded at a density of 1×10^4 per well in a 96-well plate, were grown overnight and were co-incubated at 37°C for 1 h with increasing concentrations of the peptide in 100 µl RPMI 1640 supplemented with 2% FBS. Subsequently, the peptide solution was replaced by 100 µl fresh medium. To determine cell viability, 10 µl CCK-8 was added to the well, and the cultures were incubated for an additional 2–4 h. The absorbance was then measured at 450 nm (with a reference wavelength at 620 nm), and cell viability was calculated as the percentage of the value relative to the absorbance of the cells incubated without peptide. The IC50 values of the peptides were calculated from the respective cell viability curves. Simultaneously, the LIVE/DEAD BacLight bacterial viability kit was used to visualize the cytotoxicity of the peptides. Combined incubation with SYTO 9 (15 µM) and propidium iodide (PI, 2.5 µg/ml) stained the living cells fluorescent green and the dead cells fluorescent red due to their distinct cell membrane permeability.

DU145 tumor cells = test: Live/Dead staining with SYTO 9 and PI; format: cell-based, human; details: 5 µM, 45 min, SYTO 9/PI
Method: as §1

DU145 tumor xenografts = test: DU145 tumor xenograft model in BALB/c nude mice; format: in vivo, mouse
Method: (§2) All of the protocols used for in vivo experiments were approved by the University Animal Care and Use Committee. Four to six-week-old male BALB/c nu/nu mice were purchased from the University Animal Production Center. Seven million DU145 cells suspended in 200 µl PBS were subcutaneously injected into the left flank region of mice. On day 7–9 post inoculation, the mice were randomized into three groups (n = 5) and intraperitoneally (i.p.) received 15 mg/kg B28Bn(6–14), B28 or an equivalent volume of PBS once daily for 7 consecutive days. Alternatively, the mice intratumorally received 5 mg/kg drug once daily for 5 consecutive days. The tumor volume was calculated as length×width^2×0.5. At the end of i.p. therapy, the animals were sacrificed and the major organs were excised, paraffin-embedded, sectioned, and stained with hematoxylin/eosin (H&E) for the examination of histopathologic architecture. To evaluate the cytotoxicity on tumor cells in vivo, a single dose of 50 µg of peptide in 50 µl of PBS was injected into the tumor graft (200–300 mm^3), according to the method described previously. At 24 h post-injection, the animals were sacrificed, and the tumor tissues were routinely stained with H&E.

DU145 cells [1] = test: FITC-Annexin V/PI staining, FACS analysis of apoptosis and necrosis; format: cell-based, human
Method: Phosphatidylserine exposed on the outer membrane reflects the early stages of apoptosis and can be detected by FITC-Annexin V and PI staining. The cells were detached and washed with medium. One-hundred and fifty thousand cells were suspended in 300 µl of RMPI 1640 supplemented with 10% FBS and treated with the peptide at the indicated concentration and time points. Then, the cells were subjected to dual staining with FITC-Annexin V and PI, according to the manual. The cells were observed under a fluorescence microscope and subjected to FACS analysis. Cells showing Annexin V−/PI-, Annexin V+/PI-, and Annexin V+/PI+ signals are considered to be living, early stage apoptotic, and either late stage apoptotic or necrotic, respectively. To assess DNA damage during apoptosis, the TUNEL assay was performed in accordance with the manufacturer’s instruction. Briefly, after treatment for 30 min-1 h with the peptide, cells were washed twice with PBS, fixed with 4% paraformaldehyde for 10–15 min at room temperature, permeabilized with 0.1% Triton X-100 for 2 min on ice, incubated in the reaction mixture and observed under a fluorescence microscope. FITC labeled nucleotides incorporated into the nuclei reflects DNA degradation. For investigating the activation of caspases, cells were preincubated with the Pan-caspase inhibitor, Z-VAD-FMK (100 µM), for 2 h before peptide treatment in the cytotoxicity assay. Immunofluorescence staining of caspase-3 was performed by using the Alexa Fluor 488-conjugated antibody against human cleaved caspase-3. The activation of caspase-3 was further verified by using a caspase-3 colorimetric assay kit (Genescript, Nanjing, China) with TNF-related apoptosis-inducing ligand (TRAIL) as a positive control. The activity of caspase-3 was presented as fold of peptide-treated cells vs untreated cells.

liver and kidney = details: mouse, in vivo, ip, 15 mg/kg
Method: as §2

DU145 cells [2] = test: LDH release (Cytotox 96 non-radioactive cytotoxicity assay), necrosis; format: cell-based, human; details: 5 µM, 1 h
Method: Necrosis was evaluated with the Cytotox 96 non-radioactive cytotoxicity assay kit by detecting the release of lactate dehydrogenase (LDH) from necrotic cells. Ten-thousand cells were plated in a 96-well plate and treated with the peptide in 100 µl of RMPI 1640 supplemented with 2% FBS for 10 min-2 h, followed by LDH detection with 50 µl of culture supernatant from the treated cells, according to the manufacturer’s instruction. The LDH level was presented as the percentage relative to that of cells treated with 0.9% Triton X-100.

[3] = test system: normal cells (HSF, PrSC, SMC, MRC-5); format: cell-based, human; details: 1 h
Method: as §1

[4] = test system: tumor cells (PC-3, DU145, MCF-7, MDA-MB-435S); format: cell-based, human
Method: as §1

## CSCC[C@H](NC(=O)[C@H](CC(C)C)NC(=O)[C@H](Cc1c[nH]cn1)NC(=O)CNC(=O)[C@@H](NC(=O)[C@H](C)NC(=O)[C@H](Cc1c[nH]c2ccccc12)NC(=O)[C@H](CCC(N)=O)NC(=O)[C@@H](N)CC(N)=O)C(C)C)C(N)=O [Bn(6–14), reference compound]
DU145 and PC-3 cells
  cytotoxicity (in words): no obvious cytotoxicity

## GGLRSLGRKILRAWKKYGNQWAVGHLM-NH2 [B28Bn(6–14)]
DU145 tumor cells
  dead cells (red fluorescence): over 90%
DU145 tumor xenografts; intraperitoneal 15 mg/kg once daily for 7 days, day 30, n = 5, mean±SD, PBS 421±87
  mean tumor volume: 179±42 mm^3
DU145 tumor xenografts; intratumoral 5 mg/kg once daily for 5 days, day 45, n = 5, mean±SD, PBS 1344±286
  mean tumor volume: 225±124 mm^3
DU145 cells [1]; 2.5 µM, 10 min, 0 µM 0.24
  Annexin V+/PI+ cells (necrotic): 1.94%
DU145 cells [1]; 2.5 µM, 10 min, 0 µM 3.80
  early apoptotic cells (Annexin V+/PI-): 18.05%
DU145 cells [1]; 5 µM, 1 min
  Annexin V+/PI+ cells (necrotic): 8.84%
DU145 cells [1]; 5 µM, 1 min, 0 min 3.63
  early apoptotic cells (Annexin V+/PI-): 36.99%
DU145 cells [1]; 5 µM, 5 min
  Annexin V+/PI+ cells (necrotic): 16.25%
  early apoptotic cells (Annexin V+/PI-): 32.94%
DU145 cells [1]; 5 µM, 10 min
  Annexin V+/PI+ cells (necrotic): 15.30%
  early apoptotic cells (Annexin V+/PI-): 39.19%
DU145 cells [1]; 5 µM, 15 min
  Annexin V+/PI+ cells (necrotic): 36.88%
  early apoptotic cells (Annexin V+/PI-): 35.36%
DU145 cells [1]; 10 µM, 10 min
  Annexin V+/PI+ cells (necrotic): 29.93%
  early apoptotic cells (Annexin V+/PI-): 43.18%
Liver and kidney
  histological damage in liver and kidneys: no obvious histological damage
DU145 cells [2]
  necrotic cells detected by LDH assay (percentage of max release with 0.9% Triton X-100): less than 10%
[3]
  IC50: 10.8 to 16.8 µM
[4]; 10 µM, 1 h, CCK-8
  loss of cell viability: over 90%
[4]; 1 h
  IC50: 1.7 to 3.5 µM
[4]; IC50 ratio versus unconjugated B28
  IC50 in tumor cells, times lower than B28: approximately 10 times

## GGLRSLGRKILRAWKKYGQRLGNQ-NH2 [B28Bn(2–7)]
DU145 and PC-3 cells; 10 µM peptide, CCK-8, RPMI 1640 with 2% FBS
  cytotoxicity / loss of cell viability: less than 40%
DU145 and PC-3 cells
  cytotoxicity (in words): moderate cytotoxicity
